Reference: US20250066351A1, “PYRAZOLO[1,5-A]PYRIDIN-2,3-YL AMIDES AS KV7 CHANNEL ACTIVATORS” (Biohaven Therapeutics Ltd., priority 2022, published 2025)

Assays:
[1] = target: T1, hKv7.2/7.3 (Homo sapiens, UniProt O43525+O43526); assay: Kv7.2/7.3 Thallium Flux Assay; type: cell-based; parameters: key to Thallium Flux Kv7.2/7.3 Activity: 3-10 μM (*); 1-3 μM (**); <1 μM (***); NC stands for Not Calculable; settings: EC50 of Kv7.2/Kv7.3 activation, responses normalized to retigabine 30 μM
T1 construct: host or cells: HEK cells, tetracycline-inducible expression
Description: The Thallium Flux Assay is used as a surrogate indicator of potassium channel activity.
The experimental protocol was adapted from the FluxOR™ II Green Potassium Ion Channel Assay User Guide (Pub. No. MAN0016084, Invitrogen). Conditions were optimized for the Kv7.2/7.3 cell line.
Cell Line: The hKv7.2/7.3 cell line was obtained from Chantest (Cleveland, OH 44128) cat. #CT6147.
Cell Culture: Kv7.2/7.3 cells were maintained in a media containing DMEM/F12; 50/50 (GIBCO cat. #11330), 10% Fetal Bovine Serum (FBS) (GIBCO cat. #26140), 100 units/mL Penicillin-Streptomycin (GIBCO cat. #15140), 0.005 mg/ml Blasticidin (SIGMA 15205), 0.5 mg/mL Geneticin (GIBCO cat. #10131), and 0.1 mg/mL Zeocin (GIBCO cat. #R25001). One day prior to experimentation, cells were plated in 96 well clear bottom plates (Corning cat. #353219) in a media without Blasticidin, Geneticin, or Zeocin. Channel expression was induced by adding tetracycline (Bioline cat. #BIO87030) at a final concentration of 10 ng/mL.
Compound Plates: The test compound is diluted in a mixture of 0.1% DMSO/extracellular solution with an eight-point concentration range from 0.014 μM to 30 μM. Serial dilutions were made on a Biomek NXP (BECKMAN COULTER).
Measurement and data analysis: A plate reader (Enspire, Perkin Elmer) is used to characterize the ion-channel modulating properties of novel compounds using an excitation wavelength of 475 nm and an emission wavelength of 530 nm. After a 15 sec baseline measurement, the stimulus buffer containing thallium and potassium is injected. A final endpoint measure is taken after 90 sec. Responses are normalized to positive control (retigabine, 30 μM max). Mean normalized responses at each concentration tested are fit to the standard Hill equation to generate an EC50 and maximal response.

[2] = target: T1, hKv7.2/7.3; assay: Kv7.2/7.3 Activation Assay, QPatch planar patch-clamp single concentration screen; type: cell-based; settings: increase in current over baseline, Kv7.2/Kv7.3 co-expressing HEK cells, compound concentration 3 μM, steady-state current at end of 2 s pulse to −30 mV
Outline: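 Tetracycline-induced HEK cells expressing hKv7.2/7.3, recorded 24 h post-induction by automated whole-cell patch clamp (−80 mV hold, 2 s step to −30 mV). Compound tested at 3 μM (0.1% DMSO); fold increase in steady-state current at end of the −30 mV step over baseline.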

SMILES	Thallium Flux Kv7.2/7.3 Activity [1]	QPatch Kv7.2/7.3 Activity [2]	EC50 [1] [nM]
N#Cc1ccn2nc(NC(=O)CC3(C(F)(F)F)CC3)c(C3CCC3)c2c1 [Example 97, N-(5-cyano-3-cyclobutylpyrazolo[1,5-a]pyridin-2-yl)-2-(1-(trifluoromethyl)cyclopropyl)acetamide]	NC		
CC(C)(C)CC(=O)Nc1nn2ccc(C(C)(C)O)cc2c1C1CCC1 [Example 57, N-(3-cyclobutyl-5-(2-hydroxypropan-2-yl)pyrazolo[1,5-a]pyridin-2-yl)-3,3-dimethylbutanamide]		++ (4.0-5.99 (++))	< 1000
CC(C)(C)c1c(NC(=O)CC(C)(C)C(F)(F)F)nn2ccc(C#N)cc12 [Example 89, N-(3-(tert-butyl)-5-cyanopyrazolo[1,5-a]pyridin-2-yl)-4,4,4-trifluoro-3,3-dimethylbutanamide]	NC		
CC(C)(C)CC(=O)Nc1nn2ccccc2c1C#N [Example 91, N-(3-cyanopyrazolo [1,5-a]pyridin-2-yl)-3,3-dimethylbutanamide]	NC		
CC(C)(O)c1ccn2nc(NC(=O)C[C@H]3CC(F)(F)C3(F)F)c(C3CCC3)c2c1 [Example 95, (S)-N-(3-cyclobutyl-5-(2-hydroxypropan-2-yl)pyrazolo [1,5-a]pyridin-2-yl)-2-(2,2,3,3-tetrafluorocyclobutyl) acetamide]		+ (2.0-3.99 (+))	< 1000
CC(C)(O)c1ccn2nc(NC(=O)C[C@@H]3CC(F)(F)C3(F)F)c(C3CCC3)c2c1 [Example 98, (R)-N-(3-cyclobutyl-5-(2-hydroxypropan-2-yl)pyrazolo[1,5-a]pyridin-2-yl)-2-(2,2,3,3-tetrafluorocyclobutyl) acetamide]			< 1000
CCOC(=O)c1c(NC(=O)CC(C)(C)C)nn2ccccc12 [Example 92, ethyl 2-(3,3-dimethylbutanamido) pyrazolo[1,5-a]pyridine-3-carboxylate]	NC		
CC(C)(C)CC(=O)Nc1nn2ccccc2c1C(C)(C)O [Example 93, N-(3-(2-hydroxypropan-2-yl)pyrazolo[1,5-a]pyridin-2-yl)-3,3-dimethylbutanamide]			< 1000
N#Cc1ccn2nc(NC(=O)C[C@@H]3CC(F)(F)C3(F)F)c(C3CCC3)c2c1 [Example 96, (R)-N-(5-cyano-3-cyclobutylpyrazolo[1,5-a]pyridin-2-yl)-2-(2,2,3,3-tetrafluorocyclobutyl) acetamide]	NC		
CC(C)(C)c1c(NC(=O)C[C@@H]2CC(F)(F)C2(F)F)nn2ccc(C#N)cc12 [Example 90, (R)-N-(3-(tert-butyl)-5-cyanopyrazolo[1,5-a]pyridin-2-yl)-2-(2,2,3,3-tetrafluorocyclobutyl) acetamide]	NC		
CC(C)(O)CC(=O)Nc1nn2ccc(C(F)(F)F)cc2c1-c1ccc(F)cc1 [Example 14, N-(3-(4-fluorophenyl)-5-(trifluoromethyl)pyrazolo [1,5-a]pyridin-2-yl)-3-hydroxy-3-methylbutanamide]		+ (2.0-3.99 (+))	< 1000
CC(C)(C)CC(=O)Nc1nn2ccc(C#N)cc2c1C(C)(C)C [Example 88, N-(3-(tert-butyl)-5-cyanopyrazolo[1,5-a]pyridin-2-yl)-3,3-dimethylbutanamide]	NC		
N#Cc1ccn2nc(NC(=O)C[C@H]3CC(F)(F)C3(F)F)c(C3CCC3)c2c1 [Example 94, (S)-N-(5-cyano-3-cyclobutylpyrazolo[1,5-a]pyridin-2-yl)-2-(2,2,3,3-tetrafluorocyclobutyl) acetamide]			< 1000
CC(C)(C)CC(=O)Nc1nn2ccc(C#N)cc2c1C1CCC1 [Example 3, N-(5-cyano-3-cyclobutylpyrazolo[1,5-a]pyridin-2-yl)-3,3-dimethylbutanamide]		+ (2.0-3.99 (+))	< 1000
